In ChEMBL document CHEMBL3632603, “Synthesis of biscoumarin and dihydropyran derivatives with promising antitumor and antibacterial activities” (Bioorg Med Chem Lett, 2015):
Values after ≈ are worked out from the molar mass of the structure shown.

What was measured:
[1] = tested on: Staphylococcus aureus; assay: Antibacterial activity against methicillin-resistant Staphylococcus aureus XJ 75302 after 20 hrs by CLSI broth microdilution method; assay type: functional
[2] = tested on: Staphylococcus aureus; assay: Antibacterial activity against Staphylococcus aureus ATCC 29213 after 20 hrs by CLSI broth microdilution method; assay type: functional
[3] = tested on: Staphylococcus aureus; assay: Antibacterial activity against methicillin-resistant Staphylococcus aureus USA 300 LAC after 20 hrs by CLSI broth microdilution method; assay type: functional
[4] = tested on: Staphylococcus aureus; assay: Antibacterial activity against methicillin-resistant Staphylococcus aureus Mu50 ATCC 700699 after 20 hrs by CLSI broth microdilution method; assay type: functional
[5] = Cytotoxicity against human PANC1 cells after 48 hrs by MTT assay; assay type: functional, cell-based; conditions: PANC-1, 48 h
[6] = tested on: 4T1; assay: Cytotoxicity against mouse 4T1 cells after 48 hrs by MTT assay; assay type: functional, cell-based; conditions: 4T1, 48 h
[7] = Cytotoxicity against human HuTu 80 cells after 48 hrs by MTT assay; assay type: functional, cell-based; conditions: HuTu80, 48 h
[8] = tested on: 4T1; assay: Induction of apoptosis in mouse 4T1 cells assessed as viable cells at 5 ug/ml after 48 hrs by Annexin V/Alexa Fuor 488/PI-staining based flow cytometric analysis (Rvb= 91.7%); assay type: functional; conditions: 4T1, 48 h, read-out: Activity
[9] = tested on: 4T1; assay: Induction of apoptosis in mouse 4T1 cells assessed as increase in early and late apoptotic cells at 5 ug/ml after 48 hrs by Annexin V/Alexa Fuor 488/PI-staining based flow cytometric analysis relative to vehicle control; assay type: functional
[10] = tested on: 4T1; assay: Induction of apoptosis in mouse 4T1 cells assessed as late apoptotic cells at 5 ug/ml after 48 hrs by Annexin V/Alexa Fuor 488/PI-staining based flow cytometric analysis (Rvb=3.5%); assay type: functional
[11] = tested on: 4T1; assay: Induction of apoptosis in mouse 4T1 cells assessed as early apoptotic cells at 5 ug/ml after 48 hrs by Annexin V/Alexa Fuor 488/PI-staining based flow cytometric analysis (Rvb=4.4%); assay type: functional
[12] = tested on: 4T1; assay: Induction of apoptosis in mouse 4T1 cells assessed as necrotic cells at 5 ug/ml after 48 hrs by Annexin V/Alexa Fuor 488/PI-staining based flow cytometric analysis (Rvb=0.5%); assay type: functional

Compound | MIC ([1]; XJ 75302, 20 h) [µg/mL] | MIC ([2]; ATCC 29213, 20 h) [µg/mL] | MIC [3] [µg/mL] | MIC ([4]; Mu50 ATCC 700699, 20 h) [µg/mL] | IC50 [5] [µg/mL] | IC90 [5] [µg/mL] | IC50 [6] [µg/mL] | IC90 [6] [µg/mL] | IC50 [7] [µg/mL] | IC90 [7] [µg/mL] | viability at 5 µg/mL [8] [%] | fold change (FC) [9] | Activity [10] [%] | Activity [11] [%] | Activity [12] [%] | MIC [1] [µg/mL] | MIC [2] [µg/mL] | MIC [4] [µg/mL]
CCN1CCN(C(=O)N[C@@H](C(=O)N[C@@H]2C(=O)N3[C@@H]2SC(C)(C)[C@@H]3C(=O)O)c2ccccc2)C(=O)C1=O [PIPERACILLIN] | > 128 | 2 (≈ 3.86 µM) | 8 (≈ 15.5 µM) | > 128 | – | – | – | – | – | – | – | – | – | – | – | – | – | –
COc1ccc(C2C(C#N)=C(N)Oc3c2c(=O)oc2ccccc32)cc1OC (stereo not given) | > 256 | > 256 | > 256 | > 256 | 168 (≈ 448 µM) | 310 (≈ 825 µM) | 107 (≈ 283 µM) | 194 (≈ 516 µM) | 132 (≈ 352 µM) | 232 (≈ 618 µM) | – | – | – | – | – | – | – | –
CC1(C)CC(=O)C2=C(C1)OC(N)=C(C#N)C2c1ccccc1C#N (stereo not given) | > 256 | > 256 | > 256 | > 256 | 242 (≈ 757 µM) | 512 (≈ 1600 µM) | 249 (≈ 778 µM) | 503 (≈ 1580 µM) | 414 (≈ 1300 µM) | 814 (≈ 2550 µM) | – | – | – | – | – | – | – | –
CC(C)(C)c1ccc(C(c2c(O)c3ccccc3oc2=O)c2c(O)c3ccccc3oc2=O)cc1 | 16 (≈ 34.2 µM) | 16 (≈ 34.2 µM) | 32 (≈ 68.3 µM) | 16 (≈ 34.2 µM) | 28 (≈ 59.7 µM) | 53.2 (≈ 113 µM) | 24.6 (≈ 52.4 µM) | 47.1 (≈ 101 µM) | 31.1 (≈ 66.5 µM) | 55.5 (≈ 119 µM) | – | – | – | – | – | – | – | –
N#CC1=C(N)OC2=C(C(=O)CCC2)C1c1cc(F)cc(F)c1 (stereo not given) | > 256 | > 256 | > 256 | > 256 | 319 (≈ 1060 µM) | 624 (≈ 2060 µM) | 164 (≈ 543 µM) | 308 (≈ 1020 µM) | 446 (≈ 1480 µM) | 824 (≈ 2730 µM) | – | – | – | – | – | – | – | –
N#CC1=C(N)Oc2c(c(=O)oc3ccccc23)C1c1ccc(C#N)cc1 (stereo not given) | > 256 | > 256 | > 256 | > 256 | 150 (≈ 439 µM) | 286 (≈ 838 µM) | 115 (≈ 336 µM) | 208 (≈ 609 µM) | 121 (≈ 355 µM) | 221 (≈ 648 µM) | – | – | – | – | – | – | – | –
N#CC1=C(N)Oc2c(c(=O)oc3ccccc23)C1c1ccc(Br)cc1 (stereo not given) | > 256 | > 256 | > 256 | > 256 | 176 (≈ 446 µM) | 328 (≈ 829 µM) | 96.2 (≈ 243 µM) | 172 (≈ 435 µM) | 140 (≈ 355 µM) | 274 (≈ 692 µM) | – | – | – | – | – | – | – | –
O=c1oc2ccccc2c(O)c1C(c1ccc(Br)cc1)c1c(O)c2ccccc2oc1=O | 16 (≈ 32.6 µM) | 16 (≈ 32.6 µM) | 8 (≈ 16.3 µM) | 8 (≈ 16.3 µM) | 31.8 (≈ 64.7 µM) | 61.4 (≈ 125 µM) | 19.3 (≈ 39.2 µM) | 36.7 (≈ 74.7 µM) | 29.7 (≈ 60.5 µM) | 52.6 (≈ 107 µM) | 30.2 | >8 | 25.5 | 44 | 0.3 | – | – | –
GENTAMICIN | – | – | 0.25 | – | – | – | – | – | – | – | – | – | – | – | – | 64 | 0.12 | 32
CO/N=C(\C(=O)N[C@@H]1C(=O)N2C(C(=O)O)=C(CSc3nc(=O)c(O)nn3C)CS[C@H]12)c1csc(N)n1 [CEFTRIAXONE] | > 256 | 2 (≈ 3.61 µM) | 32 (≈ 57.7 µM) | 256 (≈ 462 µM) | – | – | – | – | – | – | – | – | – | – | – | – | – | –
O=c1oc2ccccc2c(O)c1C(c1ccc(F)c(Cl)c1)c1c(O)c2ccccc2oc1=O | 16 (≈ 34.4 µM) | 16 (≈ 34.4 µM) | 8 (≈ 17.2 µM) | 8 (≈ 17.2 µM) | 30.8 (≈ 66.2 µM) | 55.8 (≈ 120 µM) | 22.9 (≈ 49.3 µM) | 43.2 (≈ 92.9 µM) | 32.6 (≈ 70.1 µM) | 64.5 (≈ 139 µM) | – | – | – | – | – | – | – | –
CC1(C)CC(=O)C2=C(C1)OC(N)=C(C#N)C2c1cccc(C(F)(F)F)c1 (stereo not given) | > 256 | > 256 | > 256 | > 256 | 248 (≈ 685 µM) | 503 (≈ 1390 µM) | 287 (≈ 791 µM) | 575 (≈ 1590 µM) | 388 (≈ 1070 µM) | 788 (≈ 2170 µM) | – | – | – | – | – | – | – | –
N#CC1=C(N)OC2=C(C(=O)CCC2)C1c1cccc(Br)c1 (stereo not given) | > 256 | > 256 | > 256 | > 256 | 368 (≈ 1070 µM) | 704 (≈ 2040 µM) | 157 (≈ 455 µM) | 287 (≈ 830 µM) | 281 (≈ 814 µM) | 543 (≈ 1570 µM) | – | – | – | – | – | – | – | –
C[C@H]1COc2c(N3CCN(C)CC3)c(F)cc3c(=O)c(C(=O)O)cn1c23.C[C@H]1COc2c(N3CCN(C)CC3)c(F)cc3c(=O)c(C(=O)O)cn1c23.O [LEVOFLOXACIN] | 4 | < 0.125 | 8 | 4 | – | – | – | – | – | – | – | – | – | – | – | – | – | –
CC1(C)CC(=O)C2=C(C1)OC(N)=C(C#N)C2c1cccc(Oc2ccccc2)c1 (stereo not given) | > 256 | > 256 | > 256 | > 256 | 383 (≈ 991 µM) | 759 (≈ 1960 µM) | 481 (≈ 1240 µM) | 927 (≈ 2400 µM) | 900 (≈ 2330 µM) | 1700 (≈ 4400 µM) | – | – | – | – | – | – | – | –
CC(C)(O/N=C(\C(=O)N[C@@H]1C(=O)N2C(C(=O)[O-])=C(C[n+]3ccccc3)CS[C@H]12)c1csc(N)n1)C(=O)O [CEFTAZIDIME] | > 256 | > 8 | 64 (≈ 117 µM) | 256 (≈ 468 µM) | – | – | – | – | – | – | – | – | – | – | – | – | – | –
COc1cc(C2C(C#N)=C(N)OC3=C2C(=O)CCC3)ccc1O (stereo not given) | > 256 | > 256 | > 256 | > 256 | 232 (≈ 744 µM) | 462 (≈ 1480 µM) | 114 (≈ 364 µM) | 219 (≈ 700 µM) | 208 (≈ 666 µM) | 399 (≈ 1280 µM) | – | – | – | – | – | – | – | –
